Laboratory results from US20240385180A1, “PRODUCTION OF ORGANOID DERIVED FROM CTC OF SMALL CELL LUNG CANCER PATIENT, AND IGF1R INHIBITOR AS A MOLECULAR TARGET DRUG FOR SMALL CELL LUNG CANCER” (KEIO UNIVERSITY, priority 2021, published 2024).

Columns and labels:
[1] = tested on: KOR457 line (ASCL1 positive subtype, IGF-independent small cell lung cancer organoid); test: Effect of IGF1R inhibitor in vivo: tumor volume in mice transplanted with KOR457 line; conditions: KOR457 (ASCL1-positive, IGF-independent) subcutaneous in NOD/Shi-scid, IL-2Rγ mice; 50 mg/kg once a day, 5 days a week, 5 weeks; vs vehicle
Method: (§1) Specifically, first, small cell lung cancer organoids (KOR317 line and KOR457 line) were peeled off from Matrigel (registered trademark) using cell recovery solution (BD Bioscience). The peeled small cell lung cancer organoids were kept on ice for 30 minutes while being loosened by pipetting every 10 minutes. Next, approximately 1×10^5 of respective small cell lung cancer organoids was resuspended in about 50 μL of Matrigel, and the respective suspensions was subcutaneously injected into mice. As the mice, 6-10 weeks old NOD/Shi-scid, IL-2Rγ mice were used. Once the tumor diameter (long×short×height/2) was approximately 100-150 mm^3, the subjects were randomly divided into a drug administration group and a placebo treatment group. Each group was set as n≥3. Subsequently, linsitinib (50 mg/kg) was administered to the drug administration group, and vehicle was administered to the placebo treatment group once a day, 5 days a week, for a total of 5 weeks. Linsitinib was dissolved in 30% PEG400-0.5% tween80-5% propylene glycol (vehicle) and administered. Tumor diameter (major axis×short axis×height/2) was measured once a week.

[2] = tested on: IGF-dependent small cell lung cancer organoids; test: In vitro apoptosis assay (Annexin V-FITC / propidium iodide flow cytometry); format: cell-based, human; conditions: 1 μM, cultured for 5 days, vs DMSO
Method: An IGF1R inhibitor was added to the medium of small cell lung cancer organoids, and the occurrence of apoptosis was measured. First, a small cell lung cancer organoid was dissociated into a single cell using TrypLE Express (Thermo Fisher Scientific), further, filtered using a 20 μm cell strainer. Next, add 5×10^4 cells per well were seeded to a […], and cultured for 5 days in the presence of 1 μM IGF1R inhibitor or 1 μM FGFR inhibitor. DMSO was added to the control cell culture medium. Subsequently, using a commercially available kit (product name “TACS Annexin V-FITC Apoptosis Detection Kit”, R&D System), the induction of apoptosis was measured by flow cytometry using the BD FACSCalibur system (Becton Dickinson). FIG. 10 is a graph showing the results of the flow cytometry. In FIG. 10, the propidium iodide-positive and Annexin V-positive cells are the cells in which apoptosis was induced.

[3] = tested on: KOR317 line (YAP1 positive subtype, IGF-dependent small cell lung cancer organoid); test: Effect of IGF1R inhibitor in vivo: tumor volume in mice transplanted with KOR317 line; conditions: KOR317 (YAP1-positive, IGF-dependent) subcutaneous in NOD/Shi-scid, IL-2Rγ mice; 50 mg/kg once a day, 5 days a week, 5 weeks; vs vehicle
Method: as §1

[4] = tested on: IGF-dependent small cell lung cancer organoids; test: Effect of IGF1R inhibitor in vitro: number of living cells (CellTiter-Glo); format: cell-based, human; conditions: 0.1, 1, 10, 100 μM in complete medium, fifth day after adding the drug, vs DMSO
Method: An IGF1R inhibitor was added to the medium of small cell lung cancer organoids, and the effect on the growth of small cell lung cancer organoids was investigated. As small cell lung cancer organoids, a plurality of types of each of IGF-dependent small cell lung cancer organoid lines and IGF-independent small cell lung cancer organoid lines were used. Furthermore, linsitinib (CAS number: 867160-71-2) was used as an IGF1R inhibitor. In addition, the number of living cells was measured using a commercially available kit (product name “CellTiter-Glo”, Promega). A small cell lung cancer organoid was dissociated into a single cell using TrypLE Express (Thermo Fisher Scientific), and further filtered using a 20 μm cell strainer. Then, 3×10^3 per well cells were seeded and cultured in complete medium added with 0.1, 1, 10, and 100 μM lincitinib. In addition, as a control, a group in which dimethyl sulfoxide (DMSO), which was used as a solvent for linsitinib, was added was also prepared. The number of living cells was measured on the fifth day after adding the drug.

`C[C@]1(O)C[C@@H](c2nc(-c3ccc4ccc(-c5ccccc5)nc4c3)c3c(N)nccn32)C1` [IGF1R inhibitor, linsitinib] was tested, and the “tumor growth (tumor volume over time)” value [1] was “no effect”, the “induction of apoptosis (propidium iodide-positive and Annexin V-positive cells)” value [2] was “induces apoptosis” and the “tumor growth (tumor volume over time)” value [3] was “tumor growth was suppressed”. The “growth of organoids (number of living cells)” value [4] was “inhibits the growth”.
